Experimental data from patent US8377883B2, “Peptide for anti-angiogenesis and use thereof” (Beijing Institute for Cancer Research, priority 2006, dated 2013).

System: mice liver cancer H22 cells
Test: Tumor suppression by FpAT and derivative peptides in liver cancer H22 tumor-bearing mouse model (Example 14)
Assay type: in vivo, mice of Kunming strain
Conditions: peptides 50 μg/100 μl PBS/injection, angulus oculi medialis vein daily, 7 times; CTX 80 mg/KG; tumors weighed
Experimental: Ninety 5-week old mice of Kunming strain purchased from Animal Center Of Chinese Academy Of Medical Sciences were inoculated subcutaneously in forelimb with mice liver cancer H22 cells (National Institute for the Control of Pharmaceutical and Biological Products) (5×10^6/100 μl/mouse). On the next day after inoculation, each kind of inoculated cells were divided randomly into […] with 10 mice per group. FpAT (50 μg/100 μl PBS/injection) and 7 kinds of derivative peptides thereof (see Table 5 below for detailed sequence):FpAT-N3d, FpAT-N6d, FpAT-N9d, FpAT-C3d, FpAT-C6d, FpAT-C9d, FpAT-N5d-C4d, and vehicle control (PBS:100 μl/injection) were injected in angulus oculi medialis vein, with CTX (cyclophosphamide) (80 mg/KG) as positive control daily, 7 times in total. The mice were sacrificed by dislocating the neck on the next day after administration was stopped, and the tumors were taken and weighed for a statistical analysis.

Compound O=P1(N(CCCl)CCCl)NCCCO1 (centres unmarked) [CTX, cyclophosphamide, reference compound] has a tumor suppressing rate of 89.9%.

“H2N-Asp-Phe-Leu-Ala-Glu-Gly-COOH (H-DFLAEG-OH; listed as Homo sapiens) [FpAT-N5d-C4d]” was tested, and the tumor suppressing rate was 56.4%.

“H2N-Asp-Ser-Gly-Glu-Gly-Asp-COOH (H-DSGEGD-OH; listed as Homo sapiens) [FpAT-C9d]” was tested, and the tumor suppressing rate was 34.5%.

Work on “H2N-Asp-Ser-Gly-Glu-Gly-Asp-Phe-Leu-Ala-COOH (H-DSGEGDFLA-OH; listed as Homo sapiens) [FpAT-C6d]” yielded a tumor suppressing rate of 32.3%.

“H2N-Asp-Ser-Gly-Glu-Gly-Asp-Phe-Leu-Ala-Glu-Gly-Gly-COOH (H-DSGEGDFLAEGG-OH; listed as Homo sapiens) [FpAT-C3d]” showed a tumor suppressing rate of 46.7%.

Work on “H2N-Glu-Gly-Asp-Phe-Leu-Ala-Glu-Gly-Gly-Gly-Val-Arg-COOH (H-EGDFLAEGGGVR-OH; listed as Homo sapiens) [FpAT-N3d]” yielded a tumor suppressing rate of 63.3%.

“H2N-Glu-Gly-Gly-Gly-Val-Arg-COOH (H-EGGGVR-OH; listed as Homo sapiens) [FpAT-N9d]” gave a tumor suppressing rate of 34.5%.

“H2N-Phe-Leu-Ala-Glu-Gly-Gly-Gly-Val-Arg-COOH (H-FLAEGGGVR-OH; listed as Homo sapiens) [FpAT-N6d]” was tested, and the tumor suppressing rate was 57.6%.
